Measurements taken from ChEMBL document CHEMBL1158780, “Anti-Helicobacter pylori compounds from Santalum album” (2005).
Converted amounts (≈) assume the structure as drawn.

Key:
Type in all cases: functional
Helicobacter pylori [1] = test: Antimicrobial activity against Helicobacter pylori Sa-3 isolate after 4 days by twofold plate dilution method; conditions: 96 h
Helicobacter pylori [2] = test: Antimicrobial activity against Helicobacter pylori ATCC 43504 after 4 days by twofold plate dilution method; conditions: ATCC 43504, 96 h
Helicobacter pylori [3] = test: Antimicrobial activity against Helicobacter pylori ATCC 43504 at 100 ug/disk after 4 days by disk diffusion method; conditions: ATCC 43504, 96 h, read-out: IZ
Helicobacter pylori [4] = test: Antimicrobial activity against Helicobacter pylori Sa-1 isolate after 4 days by twofold plate dilution method; conditions: 96 h
Helicobacter pylori [5] = test: Antimicrobial activity against Clarithromycin-resistant Helicobacter pylori TS281 after 4 days by twofold plate dilution method; conditions: 96 h
Helicobacter pylori [6] = test: Antimicrobial activity against Helicobacter pylori SS1 at 100 ug/disk after 4 days by disk diffusion method; conditions: SS1, 96 h, read-out: IZ
Helicobacter pylori [7] = test: Antimicrobial activity against Clarithromycin-resistant Helicobacter pylori TS648 after 4 days by twofold plate dilution method; conditions: 96 h
Helicobacter pylori [8] = test: Antimicrobial activity against Helicobacter pylori TPH30 after 4 days by twofold plate dilution method; conditions: 96 h
Helicobacter pylori [9] = test: Antimicrobial activity against Helicobacter pylori SS1 after 4 days by twofold plate dilution method; conditions: SS1, 96 h
Helicobacter pylori [10] = test: Antimicrobial activity against Helicobacter pylori Sa-2 isolate after 4 days by twofold plate dilution method; conditions: 96 h
Helicobacter pylori [11] = test: Antimicrobial activity against Helicobacter pylori ATCC 43504 at 250 ng/disk after 4 days by disk diffusion method
Helicobacter pylori [12] = test: Antimicrobial activity against Helicobacter pylori SS1 at 250 ng/disk after 4 days by disk diffusion method

Row | Structure (SMILES) | MIC (Helicobacter pylori [1]) [mg/L] | MIC (Helicobacter pylori [2]) [mg/L] | zone of inhibition at 100 µg/disc (Helicobacter pylori [3]) [mm] | MIC (Helicobacter pylori [4]) [mg/L] | MIC (Helicobacter pylori [5]) [mg/L] | zone of inhibition at 100 µg/disc (Helicobacter pylori [6]) [mm] | MIC (Helicobacter pylori [7]) [mg/L] | MIC (Helicobacter pylori [8]) [mg/L] | MIC (Helicobacter pylori [9]) [mg/L] | MIC (Helicobacter pylori [10]) [mg/L] | inhibition zone (IZ) (Helicobacter pylori [11]) [mm] | inhibition zone (IZ) (Helicobacter pylori [12]) [mm]
1 | C=C1[C@H]2CC[C@H](C2)[C@@]1(C)CC/C=C(/C)CO | 7.8 (≈ 35.4 µM) | 7.8 (≈ 35.4 µM) | 27.2 | 7.8 (≈ 35.4 µM) | 7.8 (≈ 35.4 µM) | 13.5 | 7.8 (≈ 35.4 µM) | 7.8 (≈ 35.4 µM) | 31.3 (≈ 142 µM) | 7.8 (≈ 35.4 µM) |  | 
2 | C/C(=C/CCC(C)(O)c1ccc(C)cc1)CO (stereo not drawn) |  |  | 24.9 |  |  | 11.2 |  |  |  |  |  | 
3 | C/C(=C/CC[C@]1(C)[C@H]2CC[C@]1(C)[C@@H](O)C2)CO |  |  | 28.9 |  |  | 22.8 |  |  |  |  |  | 
4 | CC[C@H]1OC(=O)[C@H](C)[C@@H](O[C@H]2C[C@@](C)(OC)[C@@H](O)[C@H](C)O2)[C@H](C)[C@@H](O[C@@H]2O[C@H](C)C[C@H](N(C)C)[C@H]2O)[C@](C)(OC)C[C@@H](C)C(=O)[C@H](C)[C@@H](O)[C@]1(C)O [CLARITHROMYCIN] | ≤ 0.06 | ≤ 0.06 |  | ≤ 0.06 | 32 (≈ 42.8 µM) |  | 2 (≈ 2.67 µM) | ≤ 0.06 | ≤ 0.06 | ≤ 0.06 |  | 
5 | CC1(C)S[C@@H]2[C@H](NC(=O)[C@H](N)c3ccc(O)cc3)C(=O)N2[C@H]1C(=O)O [AMOXICILLIN] | 0.25 (≈ 0.684 µM) | 0.06 (≈ 0.164 µM) |  | 0.06 (≈ 0.164 µM) | 0.5 (≈ 1.37 µM) |  | 0.13 (≈ 0.356 µM) | 0.25 (≈ 0.684 µM) | 0.25 (≈ 0.684 µM) | 0.06 (≈ 0.164 µM) | 35.3 | 20.3
6 | C/C(=C/CC[C@@]1(C)[C@H]2CC[C@]1(C)[C@H](O)C2)CO |  |  | 27.1 |  |  | 11.1 |  |  |  |  |  | 
7 | C/C(=C/CC[C@@]1(C)[C@@H]2CC[C@@H](C2)[C@@]1(C)O)CO |  |  | 20.1 |  |  | 16.8 |  |  |  |  |  | 
8 | C=C(CC/C=C(\C)CO)[C@@H]1CC=C(C)CC1 | 31.3 (≈ 142 µM) | 62.5 (≈ 284 µM) | 11.9 | 31.3 (≈ 142 µM) | 62.5 (≈ 284 µM) | 10.6 | 31.3 (≈ 142 µM) | 62.5 (≈ 284 µM) | 125 (≈ 567 µM) | 62.5 (≈ 284 µM) |  | 
9 | C/C(=C/CC[C@]1(C)C2C[C@@H]3[C@H](C2)C31C)CO | 7.8 (≈ 35.4 µM) | 15.6 (≈ 70.8 µM) | 21.6 | 7.8 (≈ 35.4 µM) | 15.6 (≈ 70.8 µM) | 11.5 | 7.8 (≈ 35.4 µM) | 15.6 (≈ 70.8 µM) | 31.3 (≈ 142 µM) | 31.3 (≈ 142 µM) |  | 
10 | CC1(CCC=C(CO)CO)C2CC3C(C2)C31C (stereo not drawn) |  |  | 38.7 |  |  | 25.9 |  |  |  |  |  | 
11 | C=C1[C@H]2CC[C@H](C2)[C@]1(C)CCC=C(CO)CO |  |  | 21.1 |  |  | 10.4 |  |  |  |  |  | 
12 | C=C(CC/C=C(/C)CO)[C@H]1CC[C@@](C)(O)CC1 |  |  | 8.9 |  |  |  |  |  |  |  |  | 
13 | C/C(=C/CC[C@@]1(C)C2CC[C@@](C)(C2)[C@@H]1O)CO |  |  | 27.6 |  |  | 15.5 |  |  |  |  |  | 
